For orientation: Ki means a dissociation constant, usually derived from enzyme kinetics or from competition with a known ligand.

Results on six compounds are retold here after patent publication US20030157088A1, “Compositions containing enzymes stabilized with inhibitors having certain binding properties and methods for using such compositions in personal care” (The Proctor & Gamble Company, priority 2001, published 2003).

For data set [1], the system named is skin. Conditions: in vivo.
The target in data set [2] is subtilisin. It is filed as biochemical. Conditions: approximate values; Ki=[E]*[I]/[EI]; read-out: inhibition constant (Ki). The source says: Typically a safe and effective amount will range from 0.00005% to 5%, preferably from 0.005% to 2%, more preferably from 0.025% to 1%. Ki values reported herein are approximate values and may be measured, e.g. using the method set forth in “Kinetcs of Subtilisin and Thiolsubtilisin“, Philipp, M. and Bender, M. L., Molecular & Cellular Biochemistry, vol. 51, pages 5-32 (1983). Another suitable method is set forth in “Protease Stabilization by Carboxylic Acid Salts: Relative Efficencies and Mechanisms,” Crossin, Michael C., J.A.O.C.S. vol. 66, no. 7, pages 1010-1014 (July 1989). […] The inhibition constant (Ki) is defined as the concentration of inhibitor required to inhibit an enzyme's activity by 50%, and may be represented as Ki=[E]*[I]/[EI], wherein E is enzyme, I is inhibitor, and EI is enzyme-inhibitor complex.

For the compound `CCCCCCCCCCO[C@@H]1O[C@H](CO)[C@@H](O)[C@H](O)[C@H]1O` [Decyl glucoside, decyl glucoside], in data set [1], the “irritation of the skin” value is “not increase irritation of the skin”.

Regarding `OB(O)O` [boric acid], in data set [2], the Ki is > 1000 µM.

On to `CCCCB(O)O` [butylboronic acid], for which the Ki in data set [2] was determined as 7200 µM.

On to `CC(=O)N[C@@H](CC(C)C)C(=O)N[C@@H](CC(C)C)C(=O)N[C@H](C=O)CCCNC(=N)N` [leupeptide], for which the Ki in data set [2] amounted to 230 µM.

As to `OB(O)c1ccccc1` [phenylboronic acid], the Ki in data set [2] was 160 µM.

On to “Streptomyces subtilisin inhibitor [Streptomyces subtilisin inhibitor (SSI)]”, for which the Ki in data set [2] was < 0.001 µM.
